Test results: article PMC3057979 (PLoS ONE, 2011)
Where no end group is shown, it is not given here.

Columns and labels:
[1] = biological target: T1, H-2 I-A^b (purified IA^b MHC class II) (Mus musculus, UniProt P14434+P14483); experiment: biochemical; assay type: binding
T1 construct: endogenous in cells; host or cells: mouse B-cell lymphoma LB27.4
T1 sequence (P14434 24-256): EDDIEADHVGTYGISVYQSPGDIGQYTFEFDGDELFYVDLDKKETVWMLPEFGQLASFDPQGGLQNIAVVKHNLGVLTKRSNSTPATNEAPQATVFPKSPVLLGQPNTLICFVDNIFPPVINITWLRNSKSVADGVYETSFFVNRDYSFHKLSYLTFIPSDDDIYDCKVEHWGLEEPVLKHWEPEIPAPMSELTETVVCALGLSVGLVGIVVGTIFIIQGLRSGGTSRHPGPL
T1 sequence (P14483 28-265): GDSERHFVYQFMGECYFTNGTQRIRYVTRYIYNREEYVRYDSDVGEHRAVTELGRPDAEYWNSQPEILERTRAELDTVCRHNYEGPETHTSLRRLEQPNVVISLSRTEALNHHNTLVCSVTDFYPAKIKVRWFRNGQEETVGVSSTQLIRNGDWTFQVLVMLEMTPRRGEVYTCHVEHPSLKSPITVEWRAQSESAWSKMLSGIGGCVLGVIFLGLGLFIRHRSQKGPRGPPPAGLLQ

[2] = test system: CD4^+ T cells of PI-WCV vaccinated C57BL/6 mice; conditions: 20 h
[3] = test system: IgG antibody production against CBU 0383, CBU 1157, CBU 1910; set-up: species or system C57BL/6 mice; conditions: mouse, in vivo
[4] = test system: CD4^+ T cells of recombinant protein vaccinated C57BL/6 mice; assay type: cell-based
[5] = test system: CD4^+ T cells of C. burnetii RSA 439 infected C57BL/6 mice; assay type: cell-based

| Sequence | IC50 [1] [nM] | SI-WCV vaccination [2] | IgG antibodies against recombinant proteins after peptide immunization alone [3] | SI-rAgs [4] | SI-Infection [5] |
| --- | --- | --- | --- | --- | --- |
| PWRYIRSFPILASSG [CBU 1157_63–77] | 34 | 6.80±1.25 |  |  |  |
| VHHYLVNHPEVLVEA [CBU 1910_43–57] |  | 22.73±12.51 | did not generate detectable antibodies | 15.9 | 28.27±9.54 |
| ENAKKLFNDPASPVA [CBU191079-93] |  | 0.93±0.84 |  | 5.6 | 0.93±0.35 |
| DLRYHAPIYGAVHPR [CBU 1157_177–191] | 193 | 3.67±1.53 |  |  |  |
| RYPNEPSRFEPKHID [CBU164510-24] |  | 2.03±1.27 |  | 2.38 | 1.56±1.29 |
| IRRLVGSFPAEERIG [CBU1645270-284] |  | 3.10±1.15 |  | 2.7 | 1.53±0.74 |
| YDSLTTPTASVCQSE [CBU 1645_196–210] | 620 | 4.13±1.01 |  |  |  |
| AKKLFNDPASPVAGN [CBU191081-95] |  | 0.63±0.31 |  | 4.8 | 0.79±0.44 |
| RYHAPIYGAVHPRWL [CBU1157179-193] |  | 1.97±0.75 |  | 4.37 | 2.37±1.05 |
| YVYDSLTTPTASVCQ [CBU1645194-208] |  | 0.67±0.25 |  | 6 | 0.43±0.17 |
| YIWHFVDGHPIQNQW [CBU0383127-141] |  | 1.33±1.43 |  | 16.22 | 0.79±0.28 |
| LSLMLNYPNSADRYY [CBU 1157_108–122] | 1040 | 4.83±2.44 |  |  |  |
| KLFNDPASPVAGNPH [CBU 1910_83–97] | 351 | 3.67±1.12 |  |  |  |
| RNNYRDSFNNFDASI [CBU038365-79] |  | 5.57±1.79 |  | 3.06 | 3.25±2.21 |
| RDSFNNFDASIISKY [CBU 0383_69–83] | 507 | 5.33±3.10 |  |  |  |
| IRNKLKIQATINNAK [CBU038398-112] |  | 1.07±0.51 |  | 2.22 | 0.43±0.57 |
| DLPAAIVDAIAPQEG [CBU1645138-152] |  | 0.80±0.62 |  | 3 | 0.67±0.34 |
| RLVGSFPAEERIGRT [CBU 1645_272–286] | 1860 | 3.50±0.96 |  |  |  |
| HYLVNHPEVLVEASQ [CBU 1910_45–59] | 293 | 23.77±13.0 |  |  |  |
| RGPWRYIRSFPILAS [CBU115761-75] |  | 1.87±1.67 |  | 7.17 | 0.57±0.34 |
